How the values were obtained:
OAT3 = biological target: T1, OAT3 (Homo sapiens, UniProt Q8TCC7); assay: OAT3 transport inhibition in HEK293-OAT3 cells; type: in vitro ADME; set-up: host or cells: HEK293 (TransportoCells); conditions: 0.1 μM probe substrate, HBSS pH 7.4, β-amanitin 0.01–250 μM (methods), n = 3, read-out: IC50, OAT3-mediated [3H]estrone-3-sulfate uptake
T1 sequence (Q8TCC7 1-542): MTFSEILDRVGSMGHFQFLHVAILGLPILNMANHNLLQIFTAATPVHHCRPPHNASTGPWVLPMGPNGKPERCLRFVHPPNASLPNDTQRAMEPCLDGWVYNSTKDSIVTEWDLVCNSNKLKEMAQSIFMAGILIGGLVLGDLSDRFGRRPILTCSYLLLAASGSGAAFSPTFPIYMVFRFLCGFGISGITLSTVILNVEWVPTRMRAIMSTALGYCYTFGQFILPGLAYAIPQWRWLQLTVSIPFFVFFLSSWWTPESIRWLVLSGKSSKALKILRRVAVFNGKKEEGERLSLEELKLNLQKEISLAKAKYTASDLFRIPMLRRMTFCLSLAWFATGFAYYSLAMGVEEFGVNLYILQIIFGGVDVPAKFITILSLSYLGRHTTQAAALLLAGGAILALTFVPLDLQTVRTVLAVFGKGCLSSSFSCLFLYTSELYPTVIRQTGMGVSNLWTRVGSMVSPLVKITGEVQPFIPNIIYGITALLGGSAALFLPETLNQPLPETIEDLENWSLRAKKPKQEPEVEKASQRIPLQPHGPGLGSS
Experimental: β-amanitin inhibition (IC50 values) of OCT1, OCT2, MATE2-K, OAT1, OAT3, Na^+/taurocholate co-transporting polypeptide (NTCP), OATP1B1, OATP1B3, P-glycoprotein (P-gp), and breast-cancer-resistant protein (BCRP) transport activities were assessed in HEK293 cells overexpressing individual transporters (TransportoCells™, Corning), LLC-PK1-P-gp (Corning), or LLC-PK1-BCRP (obtained from Dr. A.H. Schinkel, Netherlands Cancer Institute; Amsterdam, The Netherlands), as previously reported. Each incubation mixture was prepared to a final volume of 100 μL HBSS (pH 7.4) containing 0.1 μM probe substrates ([^3H]methyl-4-phenylpyridinium for OCT1 and OCT2, [^14C]metformin for MATE2-K, [^3H]p-aminohippuric acid for OAT1, [^3H]estrone-3-sulfate for OAT3, OATP1B1 and BCRP, [^3H]taurocholate for NTCP, [^3H]17-β-D-estradiol-glucuronide for OATP1B3, [^3H]digoxin for P-gp) and various concentrations of β-amanitin (0.01–250 μM), as previously described.

HEK293 control cells = assay: Uptake of amanitins into HEK293 control cells; type: in vitro ADME; conditions: 50 μM amanitin, 5 min, 37 °C, HBSS, LC-HRMS, n = 3
Experimental: HEK293 cells overexpressing OCT2, MATE2-K, OAT1, OAT3, OATP1B1, and OATP1B3 transporters and HEK293-control cells were maintained in a humidified atmosphere of 5% CO2 at 37 °C in DMEM supplemented with 10% FBS and 5 mM non-essential amino acids. In the case of HEK293-OATP1B1, -OATP1B3, and MATE2-K cells, 2 mM sodium butyrate was added to the culture medium to enhance transport activity. Cells were seeded at 2 × 10^5 cells/well in poly-D-lysine-coated 24-well plates. After 24 h, the growth medium was discarded, and attached cells were washed with HBSS and preincubated for 20 min in HBSS at 37 °C. Stock solutions of α- and β-amanitin and representative inhibitors of transporters were diluted in HBSS to make the final concentration: cimetidine 1 mM (for OCT2), cimetidine 100 μM (for MATE2-K), probenecid 100 μM (for OAT1 and OAT3), and rifampin 100 μM (for OATP1B1 and OATP1B3). Uptake of 50 μM α- and β-amanitin was measured in the absence and presence of representative inhibitors for 5 min at 37 °C. Plates were placed immediately on ice, and cells were then washed twice with 1 mL of ice-cold HBSS. Residual HBSS was removed thoroughly from the plates. Subsequently, 150 μL of 80% methanol containing IS was added to each sample well, and the cell plates were shaken gently for 20 min at 4 °C. The remaining steps were the same as described for plasma sample preparation.

[1] = LC-HRMS, cited from earlier work
Experimental: Concentrations of β-amanitin in biological samples were evaluated following our previous methodology. The standard calibration curves for β-amanitin in mouse plasma ranged from 0.5 to 500 ng/mL and were linear, with a correlation coefficient of 0.9952. The inter- and intra-day accuracy and precision fell within the acceptance criteria (3.1–14.6% of coefficients of variation (CVs) and 92.5–115.0% of accuracy). The extraction recovery and matrix effect of this analytical method were 82.8–88.9% and 93.0–98.6%. Three freeze–thaw cycles (88.7–97.2% accuracy with CVs of 3.6–14.3%), short-term ...

For `CC[C@H](C)[C@@H]1NC(=O)CNC(=O)[C@@H]2Cc3c([nH]c4cc(O)ccc34)[S@+]([O-])C[C@H](NC(=O)CNC1=O)C(=O)N[C@@H](CC(=O)O)C(=O)N1C[C@H](O)C[C@H]1C(=O)N[C@@H]([C@@H](C)[C@@H](O)CO)C(=O)N2` [β-amanitin], which IC50 (OAT3) is on record?
Its IC50 is 37.4 µM.

What about the “Uptake into HEK293 control cells, β- versus α-amanitin” value (HEK293 control cells) of the same compound?
The value was “greater than α-amanitin”.

And the “Stability, short-term storage for 2 h on ice (accuracy)” value ([1]; mouse plasma, CVs of 3.6–7.4%)?
Its value is 94.7–97.9%.

And the “Stability, three freeze–thaw cycles (accuracy)” value ([1]; mouse plasma, CVs of 3.6–14.3%)?
Its value is 88.7–97.2%.

What about the “Stability, long-term storage for 2 weeks at −80 °C (accuracy)” value ([1]; mouse plasma, CVs of 3.7–9.1%) of the same compound?
The value was 90.4–105.0%.

What about the “Post-preparation stability for 24 h in 4 °C autosampler (accuracy)” value ([1]; processed mouse plasma samples, CVs of 6.8–7.5%) of the same compound?
The value was 90.7–94.1%.

Source: article PMC9030691, “Toxicokinetics of β-Amanitin in Mice and In Vitro Drug–Drug Interaction Potential” (Pharmaceutics, 2022)
